{
  "source": "patent US8957218B2",
  "about": "“2-oxo-1-imidazolidinyl imidazothiadiazole derivatives” (UCB Pharma S.A., priority 2011, dated 2015)",
  "origin": "cited, not measured here",
  "tested_on": "epilepsy (seizure control)",
  "settings": "Gower A. J. et al., Eur. J. Pharmacol. (1992), 222, 193-203",
  "data": [
    {"compound": "CC[C@H](C(N)=O)N1CCCC1=O", "note": "[(R)-α-ethyl-2-oxo-1-pyrrolidine acetamide]", "values": [
      {"measurement": "activity in the treatment of epilepsy (seizure control)", "value": "completely lacks activity"}
    ]}
  ]
}
